Holding throughout (format): cell-based
In experiment [1] the target is T1, rat TRPV2 (Rattus norvegicus, UniProt Q9WUD2).
T1 construct: expressed in transfected cells
T1 sequence (Q9WUD2 1-761): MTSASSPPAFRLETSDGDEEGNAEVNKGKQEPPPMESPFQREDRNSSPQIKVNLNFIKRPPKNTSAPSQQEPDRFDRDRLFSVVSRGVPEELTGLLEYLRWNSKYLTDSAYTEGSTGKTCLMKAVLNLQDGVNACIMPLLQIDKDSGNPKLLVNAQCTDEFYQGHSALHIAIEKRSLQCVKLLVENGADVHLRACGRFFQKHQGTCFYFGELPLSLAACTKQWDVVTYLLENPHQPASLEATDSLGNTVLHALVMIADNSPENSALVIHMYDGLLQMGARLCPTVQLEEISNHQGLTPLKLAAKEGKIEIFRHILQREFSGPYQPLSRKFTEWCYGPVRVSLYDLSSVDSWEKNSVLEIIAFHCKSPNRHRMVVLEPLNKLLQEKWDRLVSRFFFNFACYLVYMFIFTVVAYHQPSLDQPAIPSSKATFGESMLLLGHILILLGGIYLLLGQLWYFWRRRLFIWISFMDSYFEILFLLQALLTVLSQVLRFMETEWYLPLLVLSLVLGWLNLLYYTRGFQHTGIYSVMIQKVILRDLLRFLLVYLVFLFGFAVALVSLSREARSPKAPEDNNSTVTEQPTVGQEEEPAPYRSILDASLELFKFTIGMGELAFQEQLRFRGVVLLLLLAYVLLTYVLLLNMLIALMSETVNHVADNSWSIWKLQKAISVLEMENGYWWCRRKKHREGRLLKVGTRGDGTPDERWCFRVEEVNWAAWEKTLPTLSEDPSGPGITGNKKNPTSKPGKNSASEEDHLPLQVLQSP
As to the kind of experiment: Thermo-TRP assay: [Ca2+]i elevation (Fluo-4) in HEK-293 cells transfected with TRPV2. The following applies: for TRPV2 Efficacy (% Ionomycin 4 μM): agonist effect as % of ionomycin 4 μM; for EC50: half-maximal increase in [Ca2+]i, read-out: TRPV2 Potency EC50; for IC50: vs CBD 2 μM. On the procedure:
The compounds were tested on HEK-293 cells either stably transfected with rat TRPA1, TRPV2, TRPV3, TRPV4, TRPM8 or human TRPV1 or not-transfected, by performing a continuous monitoring of the intracellular calcium ([Ca^2+]i) elevation during the experiments, following the protocol already described. On the day of the experiment, the cells were loaded for 1 h in the dark at room temperature with the fluorescent probe Fluo-4 AM (4 μM in DMSO containing 0.02% Pluronic F-127). The cells were rinsed, resuspended in Tyrode’s solution (145 mM NaCl, 2.5 mM KCl, 1.5 mM CaCl2, 1.2 mM MgCl2, 10 mM D-glucose, and 10 mM HEPES, pH 7.4), and transferred to a quartz cuvette of a spectrofluorimeter (PerkinElmer LS50B; λEX = 488 nm, λEM = 516 nm) equipped with a PTP-1 fluorescence Peltier system (PerkinElmer Life and Analytical Sciences, Waltham, MA, USA) under continuous stirring. Cell fluorescence before and after the addition of various concentrations of tested compounds was measured, normalizing the effects against the response to ionomycin (IM, 4 μM). The effect on [Ca^2+]i in non-transfected HEK-293 cells were used as the baseline and subtracted from the values obtained from the transfected ones. The efficacy of the agonists was determined by normalizing their effect to the maximum Ca^2+ influx effect on [Ca^2+]i observed with application of 4μM ionomycin. The effects of TRPA1 agonists are expressed as a percentage of the effect obtained with 100 μM allyl isothiocyanate (AITC). In the TRPV3 assay, rat TRPV3-expressing HEK-293 cells were first sensitized with the structurally unrelated agonist 2-aminoethoxydiphenyl borate (100 μM). For the TRPM8, the experiments were carried out at 22 °C. The potency (EC50 values) is determined as the concentration required to produce half-maximal increases in [Ca^2+]i. Antagonist/desensitizing behavior is evaluated against the agonist of the TRP analyzed by adding the compounds directly in the quartz cuvette 5 min before stimulation of cells with the agonist (allylisothiocyanate (100 μM) for TRPA1, capsaicin (0.1 μM) for TRPV1, cannabidiol (2 μM) for TRPV2, thymol (100 μM) for TRPV3, GSK1016790A (10 nM) for TRPV4, and icilin (0.25 μM) for TRPM8). The IC50 value is expressed as the concentration exerting a half-maximal inhibition of the agonist effect, taking as 100% the effect on [Ca^2+]i exerted by the agonist alone. A dose-response curve fitting (sigmoidal dose-response variable slope) and parameter estimation were performed with Graph-Pad Prism 8 (GraphPad Software Inc., San Diego, CA, USA). All determinations were performed at least in triplicate.

The target of experiment [2] is T2, rat TRPM8 (Rattus norvegicus, UniProt Q8R455).
T2 construct: expressed in transfected cells
Description: Thermo-TRP assay: [Ca2+]i elevation (Fluo-4) in HEK-293 cells transfected with TRPM8. On the procedure:
(§1) The compounds were tested on HEK-293 cells either stably transfected with rat TRPA1, TRPV2, TRPV3, TRPV4, TRPM8 or human TRPV1 or not-transfected, by performing a continuous monitoring of the intracellular calcium ([Ca^2+]i) elevation during the experiments, following the protocol already described. […] Cell fluorescence before and after the addition of various concentrations of tested compounds was measured, normalizing the effects against the response to ionomycin (IM, 4 μM). The effect on [Ca^2+]i in non-transfected HEK-293 cells were used as the baseline and subtracted from the values obtained from the transfected ones. The efficacy of the agonists was determined by normalizing their effect to the maximum Ca^2+ influx effect on [Ca^2+]i observed with application of 4μM ionomycin. The effects of TRPA1 agonists are expressed as a percentage of the effect obtained with 100 μM allyl isothiocyanate (AITC). In the TRPV3 assay, rat TRPV3-expressing HEK-293 cells were first sensitized with the structurally unrelated agonist 2-aminoethoxydiphenyl borate (100 μM). For the TRPM8, the experiments were carried out at 22 °C. The potency (EC50 values) is determined as the concentration required to produce half-maximal increases in [Ca^2+]i. […] A dose-response curve fitting (sigmoidal dose-response variable slope) and parameter estimation were performed with Graph-Pad Prism 8 (GraphPad Software Inc., San Diego, CA, USA). All determinations were performed at least in triplicate.

The target of experiment [3] is T3, human TRPV1 (Homo sapiens, UniProt Q8NER1).
T3 construct: expressed in transfected cells
Description: Thermo-TRP assay: [Ca2+]i elevation (Fluo-4) in HEK-293 cells transfected with TRPV1. On the procedure: as §1

Experiment [4] has as its target T4, rat TRPV4 (Rattus norvegicus, UniProt Q9ERZ8).
T4 construct: expressed in transfected cells
As to the kind of experiment: Thermo-TRP assay: [Ca2+]i elevation (Fluo-4) in HEK-293 cells transfected with TRPV4. On the procedure: as §1

Setting [5] is: vs Icilin 0.25 μM, 22 °C, read-out: IC50 TRPM8.
Setting [6] is: vs Capsaicin 0.1 μM, read-out: IC50 TRPV1.
The mark [7] stands for this setting: vs GSK1016790A 10 nM, read-out: IC50 TRPV4.

As a reminder, the EC50 is the concentration giving half of the maximal effect. As a reminder, the IC50 is the concentration needed to halve the response being measured.

Where two headings read alike, the source gives them in different places.

T2 sequence (Q8R455 whole entry): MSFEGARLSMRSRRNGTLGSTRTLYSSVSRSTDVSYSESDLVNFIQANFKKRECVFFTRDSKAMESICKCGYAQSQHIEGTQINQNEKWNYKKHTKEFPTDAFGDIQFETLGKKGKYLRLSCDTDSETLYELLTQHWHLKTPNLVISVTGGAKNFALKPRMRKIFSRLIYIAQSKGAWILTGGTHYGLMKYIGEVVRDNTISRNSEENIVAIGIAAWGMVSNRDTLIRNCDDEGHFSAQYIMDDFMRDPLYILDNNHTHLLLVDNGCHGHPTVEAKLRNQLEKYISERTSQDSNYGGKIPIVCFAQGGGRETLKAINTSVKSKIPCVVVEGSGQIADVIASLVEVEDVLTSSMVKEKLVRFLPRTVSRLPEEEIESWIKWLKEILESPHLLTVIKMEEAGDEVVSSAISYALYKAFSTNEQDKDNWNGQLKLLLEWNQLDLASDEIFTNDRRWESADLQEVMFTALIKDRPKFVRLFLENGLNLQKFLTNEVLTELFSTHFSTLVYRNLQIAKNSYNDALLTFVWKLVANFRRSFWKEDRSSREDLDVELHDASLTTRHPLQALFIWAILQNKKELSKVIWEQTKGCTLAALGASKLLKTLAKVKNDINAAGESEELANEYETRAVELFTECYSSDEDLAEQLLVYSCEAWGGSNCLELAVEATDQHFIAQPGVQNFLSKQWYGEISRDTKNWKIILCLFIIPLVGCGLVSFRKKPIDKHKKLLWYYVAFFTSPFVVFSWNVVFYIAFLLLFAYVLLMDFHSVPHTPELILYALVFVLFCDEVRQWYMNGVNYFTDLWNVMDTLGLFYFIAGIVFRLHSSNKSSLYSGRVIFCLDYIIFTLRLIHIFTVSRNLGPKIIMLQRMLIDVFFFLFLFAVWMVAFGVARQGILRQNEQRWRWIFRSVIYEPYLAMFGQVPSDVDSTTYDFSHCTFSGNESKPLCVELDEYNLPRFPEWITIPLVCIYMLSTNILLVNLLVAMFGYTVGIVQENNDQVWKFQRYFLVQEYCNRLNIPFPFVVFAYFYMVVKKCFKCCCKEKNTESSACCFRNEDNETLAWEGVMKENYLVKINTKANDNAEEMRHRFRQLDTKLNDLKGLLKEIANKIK
T4 sequence (Q9ERZ8 whole entry): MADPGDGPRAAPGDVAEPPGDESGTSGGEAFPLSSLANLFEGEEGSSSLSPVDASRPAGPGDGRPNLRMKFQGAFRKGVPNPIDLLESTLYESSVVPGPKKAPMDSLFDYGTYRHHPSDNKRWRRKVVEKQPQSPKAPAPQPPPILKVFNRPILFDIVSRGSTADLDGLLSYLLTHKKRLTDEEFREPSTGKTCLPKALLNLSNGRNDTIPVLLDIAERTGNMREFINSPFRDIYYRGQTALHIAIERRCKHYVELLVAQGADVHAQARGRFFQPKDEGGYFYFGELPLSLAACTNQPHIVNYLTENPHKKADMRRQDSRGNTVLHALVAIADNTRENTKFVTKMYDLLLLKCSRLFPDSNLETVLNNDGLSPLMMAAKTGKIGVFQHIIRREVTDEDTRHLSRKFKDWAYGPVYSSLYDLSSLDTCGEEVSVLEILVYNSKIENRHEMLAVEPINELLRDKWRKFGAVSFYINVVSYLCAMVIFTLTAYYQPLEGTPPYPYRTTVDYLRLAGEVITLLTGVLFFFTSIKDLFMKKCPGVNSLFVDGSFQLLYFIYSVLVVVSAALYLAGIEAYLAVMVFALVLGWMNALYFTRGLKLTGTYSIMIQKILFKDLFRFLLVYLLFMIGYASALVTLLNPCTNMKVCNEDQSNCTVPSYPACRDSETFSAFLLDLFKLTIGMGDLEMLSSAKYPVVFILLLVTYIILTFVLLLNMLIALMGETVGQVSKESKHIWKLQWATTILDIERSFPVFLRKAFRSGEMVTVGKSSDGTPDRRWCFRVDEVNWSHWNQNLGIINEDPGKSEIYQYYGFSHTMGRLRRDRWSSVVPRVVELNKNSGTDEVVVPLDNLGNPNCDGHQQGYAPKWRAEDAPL
T3 sequence (Q8NER1 whole entry): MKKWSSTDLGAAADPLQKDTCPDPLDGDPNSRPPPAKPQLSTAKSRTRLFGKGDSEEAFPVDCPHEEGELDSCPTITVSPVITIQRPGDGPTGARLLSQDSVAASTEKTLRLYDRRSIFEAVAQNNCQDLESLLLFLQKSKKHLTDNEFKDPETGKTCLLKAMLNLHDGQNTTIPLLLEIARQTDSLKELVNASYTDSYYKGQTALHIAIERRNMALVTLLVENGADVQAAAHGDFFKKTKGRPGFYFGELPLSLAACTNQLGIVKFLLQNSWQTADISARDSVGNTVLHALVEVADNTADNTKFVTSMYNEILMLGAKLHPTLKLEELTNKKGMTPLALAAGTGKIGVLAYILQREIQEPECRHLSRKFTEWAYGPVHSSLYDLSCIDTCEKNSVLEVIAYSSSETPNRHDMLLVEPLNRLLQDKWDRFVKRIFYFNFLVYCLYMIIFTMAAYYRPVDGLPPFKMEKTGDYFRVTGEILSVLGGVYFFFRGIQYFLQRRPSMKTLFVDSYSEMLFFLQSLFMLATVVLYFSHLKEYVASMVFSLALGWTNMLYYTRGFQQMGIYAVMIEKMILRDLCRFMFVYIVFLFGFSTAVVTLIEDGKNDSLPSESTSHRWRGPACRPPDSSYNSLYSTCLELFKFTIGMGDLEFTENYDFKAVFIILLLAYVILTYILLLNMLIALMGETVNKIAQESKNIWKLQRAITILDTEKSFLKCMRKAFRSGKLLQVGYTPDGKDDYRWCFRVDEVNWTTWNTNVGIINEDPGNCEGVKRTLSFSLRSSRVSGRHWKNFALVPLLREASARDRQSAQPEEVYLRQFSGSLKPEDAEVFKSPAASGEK

With `C=C(C)[C@@H]1CCC(C)=C[C@H]1C1=C(O)C(=O)C(C(C)(C)CCCCCC)=CC1=O` [5b], the “TRPV2 Efficacy (% Ionomycin 4 μM)” value in experiment [1] is listed as 30.6 ± 6.5%. Also, in experiment [1], the EC50 is 12.2 ± 9.7 µM. For the same compound, the IC50 was 5.45 ± 0.5 µM in experiment [1], 1.2 ± 0.1 µM in experiment [2] (setting [5]), over 100 µM in experiment [3] (setting [6]) and over 100 µM in experiment [4] (setting [7]).

As for `CCCCCCC(C)(C)C1=CC(=O)C(C/C=C(\C)CCC=C(C)C)=C(O)C1=O` [7b, p-DMHCBGQ], in experiment [1], the “TRPV2 Efficacy (% Ionomycin 4 μM)” value is 47.8 ± 1.4%. Moreover, the EC50 in experiment [1] is 30.5 ± 3.9 µM. For the same compound, the concentration for half-maximal inhibition (IC50) was 23.7 ± 2.9 µM in experiment [1], 14.9 ± 3.9 µM in experiment [2] (setting [5]), over 100 µM in experiment [3] (setting [6]) and over 50 µM in experiment [4] (setting [7]).

As for `CCCCCCC(C)(C)C1=CC2=C(C(=O)C1=O)[C@@H]1CC(C)=CC[C@H]1C(C)(C)O2` [6b], the “TRPV2 Efficacy (% Ionomycin 4 μM)” value in experiment [1] was 78.1 ± 4.0%. Also, in experiment [1], the EC50 was over 50 µM. For the same compound, the IC50 in experiment [1] is 8.5 ± 0.5 µM; in experiment [2], over 100 µM; in experiment [3], over 100 µM; in experiment [4], over 100 µM.

Turning to `CCCCCCC(C)(C)C1=CC(=O)C2=C(OC(C)(CCC=C(C)C)C=C2)C1=O` (stereo not drawn) [8b], the “TRPV2 Efficacy (% Ionomycin 4 μM)” value in experiment [1] was 31.5 ± 2.9%. For the same compound, the EC50 in experiment [1] is over 50 µM. Further, the 50% inhibitory concentration (IC50) in experiment [1] was 6.9 ± 0.1 µM; in experiment [2] (setting [5]), over 100 µM; in experiment [3] (setting [6]) it was over 100 µM; in experiment [4] (setting [7]), over 100 µM.

For the origin of these results see PMC11942486, “The Impact of a Quinone Scaffold on Thermo-TRPs Modulation by Dimethylheptyl Phytocannabinoids” (International Journal of Molecular Sciences, 2025).
